Source: ChEMBL document CHEMBL2385065, “Antiproliferative homoscalarane sesterterpenes from two Madagascan sponges” (Bioorg Med Chem, 2013)
pIC50: −log10 of the molar value.

Legend:
Assay type in all cases: functional, cell-based
[1] = Cytotoxicity against human H522-T1 cells after 96 hrs by CellTire-Glo luminescent assay; conditions: H522-T1, 96 h
A2780 = experiment: Cytotoxicity against human A2780 cells after 2 days by alamar Blue assay; conditions: A2780, 48 h
A2058 = experiment: Cytotoxicity against human A2058 cells after 96 hrs by CellTire-Glo luminescent assay; conditions: A2058, 96 h

CC1(C)CCC[C@@]2(CO)[C@H]1CC[C@]1(C)[C@@H]2C[C@@H](O)[C@]2(C)[C@H]3C=CC(=O)C3=CC[C@@H]12 (relative stereo)
pIC50 [1]: 5.28 | pIC50 (A2780): 5.35 | pIC50 (A2058): 5.38

CC(=O)C1=CC[C@H]2[C@]3(C)CC[C@H]4C(C)(C)CCC[C@]4(CO)[C@H]3C[C@@H](O)[C@]2(C)[C@H]1C=O (relative stereo)
pIC50 [1]: 6.21 | pIC50 (A2780): 6.55 | pIC50 (A2058): < 6.43

CC(=O)C1=CC[C@H]2[C@]3(C)CC[C@H]4C(C)(C)CCC[C@]4(CO)[C@H]3C[C@H](O)[C@]2(C)[C@@H]1C=O (relative stereo)
pIC50 [1]: 5.77 | pIC50 (A2780): 6.59 | pIC50 (A2058): 5.74

CC(=O)O[C@H]1C[C@H]2[C@@](C)(CC[C@H]3C(C)(C)CCC[C@@]32CO)[C@@H]2CC=C(C(C)=O)[C@H](C=O)[C@@]12C
pIC50 (A2780): 6.19

CC1(O)OC(=O)C2=C1CC[C@H]1[C@]3(C)CC[C@H]4C(C)(C)CCC[C@]4(CO)[C@H]3C[C@@H](O)[C@]21C (stereo partly specified)
pIC50 [1]: < 5.00 | pIC50 (A2780): 5.06 | pIC50 (A2058): < 5.00

CC(=O)O[C@H]1C(=O)[C@@]2(C)[C@H]([C@H](OC(=O)c3ccccc3)[C@]3(O)C[C@H](OC(=O)[C@H](O)[C@@H](NC(=O)c4ccccc4)c4ccccc4)C(C)=C1C3(C)C)[C@]1(OC(C)=O)CO[C@@H]1C[C@@H]2O [PACLITAXEL]
pIC50 [1]: 8.09 | pIC50 (A2780): 7.92 | pIC50 (A2058): 8.33
